38 molecules from patent US20240150377A1, “MODULATORS OF CYSTIC FIBROSIS TRANSMEMBRANE CONDUCTANCE REGULATOR” (VERTEX PHARMACEUTICALS INCORPORATED, priority 2020, published 2024) can be followed below.

Molecules are shown by their SMILES. Bounds are passed on as bounds.

The target of one test is T1, CFTR (Homo sapiens, UniProt P13569, DEL508-508).
T1 construct: endogenous in cells; host or cells: primary human bronchial epithelial cells from CF subjects (F508del/MF-HBE), differentiated at air-liquid interface
T1 sequence (P13569 with tags, fused parts or gaps DEL508-508): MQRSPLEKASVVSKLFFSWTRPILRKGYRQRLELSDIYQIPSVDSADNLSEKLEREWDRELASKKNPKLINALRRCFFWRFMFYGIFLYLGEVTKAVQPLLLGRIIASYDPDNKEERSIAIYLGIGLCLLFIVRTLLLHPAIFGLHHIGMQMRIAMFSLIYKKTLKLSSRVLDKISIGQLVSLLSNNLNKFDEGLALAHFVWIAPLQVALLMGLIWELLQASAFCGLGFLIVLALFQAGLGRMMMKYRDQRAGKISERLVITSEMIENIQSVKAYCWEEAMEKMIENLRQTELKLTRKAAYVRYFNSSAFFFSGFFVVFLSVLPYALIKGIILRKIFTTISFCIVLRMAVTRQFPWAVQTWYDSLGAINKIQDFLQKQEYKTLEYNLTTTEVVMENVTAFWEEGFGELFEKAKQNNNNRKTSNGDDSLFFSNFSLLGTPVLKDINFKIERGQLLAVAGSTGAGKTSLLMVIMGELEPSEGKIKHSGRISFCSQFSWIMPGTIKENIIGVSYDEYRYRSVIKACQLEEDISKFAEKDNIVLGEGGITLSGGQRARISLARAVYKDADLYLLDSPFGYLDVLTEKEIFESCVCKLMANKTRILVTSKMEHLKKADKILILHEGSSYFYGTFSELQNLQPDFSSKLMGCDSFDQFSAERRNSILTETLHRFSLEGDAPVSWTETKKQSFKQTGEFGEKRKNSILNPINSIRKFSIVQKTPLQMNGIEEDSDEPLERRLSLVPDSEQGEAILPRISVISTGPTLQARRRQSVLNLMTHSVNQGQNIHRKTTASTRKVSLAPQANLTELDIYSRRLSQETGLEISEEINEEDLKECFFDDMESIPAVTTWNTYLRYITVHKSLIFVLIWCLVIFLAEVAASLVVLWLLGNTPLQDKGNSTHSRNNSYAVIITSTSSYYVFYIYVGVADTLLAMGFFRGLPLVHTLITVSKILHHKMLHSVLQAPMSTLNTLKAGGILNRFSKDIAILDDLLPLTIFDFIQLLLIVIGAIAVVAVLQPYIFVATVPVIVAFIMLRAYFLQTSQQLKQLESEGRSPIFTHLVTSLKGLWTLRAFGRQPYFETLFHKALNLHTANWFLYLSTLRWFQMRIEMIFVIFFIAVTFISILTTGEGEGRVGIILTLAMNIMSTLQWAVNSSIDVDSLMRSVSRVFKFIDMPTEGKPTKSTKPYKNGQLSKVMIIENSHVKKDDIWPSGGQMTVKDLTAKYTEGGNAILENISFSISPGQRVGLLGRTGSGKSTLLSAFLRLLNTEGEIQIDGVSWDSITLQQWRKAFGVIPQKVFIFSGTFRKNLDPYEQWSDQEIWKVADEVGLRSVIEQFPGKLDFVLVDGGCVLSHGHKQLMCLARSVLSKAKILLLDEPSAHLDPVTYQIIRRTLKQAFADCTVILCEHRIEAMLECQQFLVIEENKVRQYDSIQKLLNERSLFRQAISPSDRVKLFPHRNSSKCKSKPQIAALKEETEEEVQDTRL
Description: HBE2 assay: Ussing chamber assay of CFTR-mediated short-circuit currents. It is filed as cell-based. As to conditions: 3 μM corrector; F508del/MF-HBE cells; with 44 nM potentiator, 18-24 hours, 20% human serum. Put shortly:
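Corrector activity read as CFTR-dependent ISC (μA/cm^2): peak forskolin current minus post-inhibitor steady state. Measured at 37 °C, voltage clamp at 0 mV, on F508del/MF-HBE epithelia grown >14 days air-liquid interface in Ussing chambers.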
As to `Cc1cccc(C)c1-c1cc2nc(n1)NS(=O)(=O)c1cccc(c1)C(=O)N(Cc1cncc(N3CCC[C@@H]4CC[C@@H]43)n1)[C@H](CCC(C)C)CO2` [Compound 1747], the “HBE2 Activity at 3 μM (%)” value is reported as “+++ (+++ is >60+)”. On the same count and under the same terms, to `CC[C@H]1CCN1c1cncc(CN2C(=O)c3cccc(c3)S(=O)(=O)Nc3nc(cc(-c4c(C)cccc4C)n3)OC[C@H]2CCC(C)(C)C)n1` [Compound 1864] belongs “+++ (+++ is >60+)”. Still for that read-out and setting: to `Cc1cccc(C)c1-c1cc2nc(n1)NS(=O)(=O)c1cccc(n1)C(=O)N(Cc1cncc(N(C)C3CCC3)n1)[C@H](CC(C)(C)C)CO2` [Compound 1832] belongs “+++ (+++ is >60+)”; to `Cc1cccc(C)c1-c1cc2nc(n1)NS(=O)(=O)c1cccc(c1)C(=O)N(Cc1ncc(OC3CCC3)cn1)[C@H](COC(C)C)CO2` [Compound 1956], “+++ (+++ is >60+)”. In the case of `Cc1cccc(C)c1-c1cc2nc(n1)NS(=O)(=O)c1cccc(c1)C(=O)N(Cc1cncc(N(C)C3CCC3)n1)[C@H](CC1CCCCC1)CO2` [Compound 1804], the “HBE2 Activity at 3 μM (%)” value is “+++ (+++ is >60+)”. Still for that read-out and setting: the result for `Cc1cccc(C)c1-c1cc2nc(n1)NS(=O)(=O)c1cccc(c1)C(=O)N(Cc1cncc(N3CC[C@H]3C(C)C)n1)[C@H](CCC(C)(C)C)CO2` [Compound 1797] reads “+++ (+++ is >60+)”; that for `Cc1cccc(C)c1-c1cc2nc(n1)NS(=O)(=O)c1cccc(c1)C(=O)N(Cc1cnc(C)c(N3CC[C@H]3C)n1)[C@H](CC(C)(C)C)CO2` [Compound 1833], “+++ (+++ is >60+)”; that for `Cc1cccc(C)c1-c1cc2nc(n1)NS(=O)(=O)c1cccc(c1)C(=O)N(Cc1cnc3cc(C(C)C)n(C)c3n1)[C@H](CC(C)C)CO2` [Compound 1834], “+++ (+++ is >60+)”. `Cc1cccc(C)c1-c1cc2nc(n1)NS(=O)(=O)c1cccc(c1)C(=O)N(Cc1cnc3cc(C(C)C)n(C)c3n1)[C@H](COC1CC1)CO2` [Compound 1889]: the “HBE2 Activity at 3 μM (%)” value is “+++ (+++ is >60+)”. On the same count and under the same terms, to `Cc1cccc(C)c1-c1cc2nc(n1)NS(=O)(=O)c1cccc(c1)C(=O)N(Cc1cncc(N3CCC[C@H]3C)n1)[C@H](CC1CC(C)(C)C1)CO2` [Compound 1899] belongs “+++ (+++ is >60+)”; to `CCC(C)(C)C[C@@H]1COc2cc(-c3c(C)cccc3C)nc(n2)NS(=O)(=O)c2cccc(c2)C(=O)N1Cc1cncc(N(C)C2CCC2)n1` (single isomer, unassigned) [Compound 1330, 12-[[6-[cyclobutyl(methyl)amino]pyrazin-2-yl]methyl]-11-(2,2-dimethylbutyl)-6-(2,6-dimethylphenyl)-2,2-dioxo-9-oxa-2λ^6-thia-3,5,12,19-tetrazatricyclo[12.3.1.14,8]nonadeca-1(18),4,6,8(19),14,16-hexaen-13-one], “+++ (+++ is >60+)”; to `Cc1cccc(C)c1-c1cc2nc(n1)NS(=O)(=O)c1cccc(c1)C(=O)N(Cc1cncc(N(C)[C@H]3C[C@@H](F)C3)n1)[C@H](CCC1CC1)CO2` [Compound 1915], “+++ (+++ is >60+)”. Same read-out and setting: the result for `CC[C@@H]1CCCN1c1cncc(CN2C(=O)c3cccc(c3)S(=O)(=O)Nc3nc(cc(-c4c(C)cccc4C)n3)OC[C@H]2CCC(C)(C)C)n1` [Compound 1816] reads “+++ (+++ is >60+)”; that for `Cc1cccc(C)c1-c1cc2nc(n1)NS(=O)(=O)c1cccc(c1)C(=O)N(Cc1cncc(N(C)C3CCC3)n1)[C@H](c1ccccc1)CO2` [Compound 1731], “+++ (+++ is >60+)”; that for `COC1(CN(C)c2cncc(CN3C(=O)c4cccc(c4)S(=O)(=O)Nc4nc(cc(-c5c(C)cccc5C)n4)OC[C@H]3CC(C)(C)C)n2)CCC1` [Compound 1758], “+++ (+++ is >60+)”. As for `Cc1cccc(C)c1-c1cc2nc(n1)NS(=O)(=O)c1cccc(c1)C(=O)N(Cc1cnc3cc(C(C)C)n(C)c3n1)[C@H](CC1CCC1)CO2` [Compound 1830], the “HBE2 Activity at 3 μM (%)” value is “+++ (+++ is >60+)”. On the same count and under the same terms, to `Cc1cccc(C)c1-c1cc2nc(n1)NS(=O)(=O)c1cccc(c1)C(=O)N(Cc1ncc(OC3CCC3)cc1F)[C@H](COC(C)C)CO2` [Compound 1953] belongs “+++ (+++ is >60+)”. The same measure, in the same setting: to `Cc1cccc(C)c1-c1cc2nc(n1)NS(=O)(=O)c1cccc(c1)C(=O)N(Cc1cncc(N3CCC[C@H]3C3CC3)n1)[C@H](CC1CCCCC1)CO2` [Compound 1866] belongs “+++ (+++ is >60+)”; to `Cc1cccc(C)c1-c1cc2nc(n1)NS(=O)(=O)c1cccc(c1)C(=O)N(Cc1cncc(N3C[C@H]4CCCC[C@H]43)n1)[C@H](CC(C)(C)C)CO2` [Compound 1800], “+++ (+++ is >60+)”; to `CCC(C)(C)C[C@@H]1COc2cc(-c3c(C)cccc3C)nc(n2)NS(=O)(=O)c2cccc(c2)C(=O)N1Cc1cncc(N(C)C2CCC2)n1` [Compound 1329, 12-[[6-[cyclobutyl(methyl)amino]pyrazin-2-yl]methyl]-11-(2,2-dimethylbutyl)-6-(2,6-dimethylphenyl)-2,2-dioxo-9-oxa-2λ^6-thia-3,5,12,19-tetrazatricyclo[12.3.1.14,8]nonadeca-1(18),4,6,8(19),14,16-hexaen-13-one], “++ (++ is 30-60%)”. On the same count and under the same terms, the result for `Cc1cccc(C)c1-c1cc2nc(n1)NS(=O)(=O)c1cccc(c1)C(=O)N(Cc1cncc(N(C)[C@H]3C[C@H](F)C3)n1)[C@H](CCC(C)(C)C)CO2` [Compound 1849] reads “+++ (+++ is >60+)”; that for `Cc1cccc(C)c1-c1cc2nc(n1)NS(=O)(=O)c1cccc(c1)C(=O)N(Cc1cncc(N(C)C3CCC3)n1)[C@H](CC1CCCC1)CO2` [Compound 1844], “+++ (+++ is >60+)”.

The same test, now with this note: 3 μM; F508del/MF-HBE cells; with 44 nM potentiator; 18-24 hours; 20% human serum.
As to `Cc1cccc(C)c1-c1cc2nc(n1)NS(=O)(=O)c1cccc(c1)C(=O)N(Cc1cncc(N(C)[C@@H]3C[C@H]4COC[C@H]43)n1)[C@H](CC(C)(C)C)CO2` (stereo in doubt) [Compound 1677], the “HBE2 Activity at 3 μM (%)” value is reported as “+++ (+++ is >60+)”. On the same count and under the same terms, to `Cc1cccc(C)c1-c1cc2nc(n1)NS(=O)(=O)c1cccc(c1)C(=O)N(Cc1cncc(N3CCC4NC(=O)CC43)n1)[C@H](CC(C)(C)C)CO2` (stereo in doubt) [Compound 1621] belongs “++ (++ is 30-60%)”. Take `CC(C)c1ccccc1-c1cc2nc(n1)NS(=O)(=O)c1cccc(c1)C(=O)N(Cc1cncc(N(C)C3CCC3)n1)[C@H](CC(C)(C)C)CO2` [Compound 1704]: the “HBE2 Activity at 3 μM (%)” value is “+++ (+++ is >60+)”. `Cc1cccc(C)c1-c1cc2nc(n1)NS(=O)(=O)c1cccc(c1)C(=O)N(Cc1cncc(N3CC[C@H]3C3CCC3)n1)[C@H](CC(C)(C)C)CO2` (stereo in doubt) [Compound 1637]: the “HBE2 Activity at 3 μM (%)” value is “+++ (+++ is >60+)”.

For `Cc1cccc(C)c1-c1cc2nc(n1)NS(=O)(=O)c1cccc(c1)C(=O)N(Cc1cncc(N(C)C3CCC3)n1)[C@H](CC(C)C)CO2` [Compound 1671], the “HBE2 Activity at 3 μM (%)” value is given as “+++ (+++ is >60+)”. On the same count and under the same terms, the result for `CCC(C)Oc1cnc(CN2C(=O)c3cccc(c3)S(=O)(=O)Nc3nc(cc(-c4c(C)cccc4C)n3)OC[C@H]2CCC2CC2)nc1` (stereo partly drawn) [Compound 1598] reads “+++ (+++ is >60+)”. The same measure, in the same setting: the result for `Cc1cccc(C)c1-c1cc2nc(n1)NS(=O)(=O)c1cccc(c1)C(=O)N(Cc1cncc(N3CC[C@@H]4CC[C@@H]43)n1)[C@H](CC(C)(C)C)CO2` (single isomer, unassigned) [Compound 1314] reads “+++ (+++ is >60+)”; that for `Cc1cccc(C)c1-c1cc2nc(n1)NS(=O)(=O)c1cccc(c1)C(=O)N(Cc1ncc(OC(C)C)cn1)[C@H](C(C)C1CC1)CO2` (stereo in doubt) [Compound 1557], “+ (+ is <300))”; that for `Cc1cccc(C)c1-c1cc2nc(n1)NS(=O)(=O)c1cccc(c1)C(=O)N(Cc1cncc(N(C)c3cnn(C)c3)n1)[C@H](CC(C)(C)C)CO2` [Compound 1636], “+++ (+++ is >60+)”. Same read-out and setting: to `Cc1cccc(C)c1-c1cc2nc(n1)NS(=O)(=O)c1cccc(c1)C(=O)N(Cc1cccc(N3CC[C@H]3C)n1)[C@H](CC(C)(C)C)CO2` [Compound 1551] belongs “+++ (+++ is >60+)”; to `COC[C@@H]1CCN1c1cncc(CN2C(=O)c3cccc(c3)S(=O)(=O)Nc3nc(cc(-c4c(C)cccc4C)n3)OC[C@H]2CC(C)(C)C)n1` [Compound 1549], “+++ (+++ is >60+)”. Regarding `COC(=O)N1CC2CCN(c3cncc(CN4C(=O)c5cccc(c5)S(=O)(=O)Nc5nc(cc(-c6c(C)cccc6C)n5)OC[C@H]4CC(C)(C)C)n3)C2C1` (stereo partly drawn) [Compound 1681], the “HBE2 Activity at 3 μM (%)” value is “+++ (+++ is >60+)”. Same read-out and setting: the result for `Cc1cccc(C)c1-c1cc2nc(n1)NS(=O)(=O)c1cccc(c1)C(=O)N(Cc1ncc(OC(C)C)cn1)[C@H](CC1CCC1)[C@@H](C)O2` [Compound 1568] reads “+++ (+++ is >60+)”; that for `CO[C@H]1C[C@H](CN(C)c2cncc(CN3C(=O)c4cccc(c4)S(=O)(=O)Nc4nc(cc(-c5c(C)cccc5C)n4)OC[C@H]3CC(C)(C)C)n2)C1` [Compound 1631], “+++ (+++ is >60+)”; that for `Cc1cccc(C)c1-c1cc2nc(n1)NS(=O)(=O)c1cccc(c1)C(=O)N(Cc1ncc(OC(C)C)cn1)[C@H]([C@H](C)C1CC1)CO2` (stereo in doubt) [Compound 1558], “+++ (+++ is >60+)”. The same measure, in the same setting: to `Cc1cccc(C)c1-c1cc2nc(n1)NS(=O)(=O)c1cccc(c1)C(=O)N(Cc1cncc(N3CCCC34CCC4)n1)[C@H](CC(C)(C)C)CO2` [Compound 1625] belongs “+++ (+++ is >60+)”.

Staying with this test, now noted: F508del/MF-HBE cells; with 44 nM potentiator; 18-24 hours; 20% human serum.
One may read the EC50 as the concentration at which the effect is half-maximal. On to `Cc1cccc(C)c1-c1cc2nc(n1)NS(=O)(=O)c1cccc(c1)C(=O)N(Cc1cncc(N(C)C3CCC3)n1)[C@H](CC(C)C)CO2` [Compound 1671], for which the EC50 was less than 1000 nM. Consider `COC[C@@H]1CCN1c1cncc(CN2C(=O)c3cccc(c3)S(=O)(=O)Nc3nc(cc(-c4c(C)cccc4C)n3)OC[C@H]2CC(C)(C)C)n1` [Compound 1549], for which the EC50 is less than 1000 nM.

Staying with this test, now noted: F508del/MF-HBE cells; with 44 nM potentiator; 18-24 hours; 20% human serum; read-out: HBE2 Max activity (%).
Turning to `Cc1cccc(C)c1-c1cc2nc(n1)NS(=O)(=O)c1cccc(c1)C(=O)N(Cc1cncc(N(C)C3CCC3)n1)[C@H](CC(C)C)CO2` [Compound 1671], the Emax is greater than 60%.

For the molecule `COC[C@@H]1CCN1c1cncc(CN2C(=O)c3cccc(c3)S(=O)(=O)Nc3nc(cc(-c4c(C)cccc4C)n3)OC[C@H]2CC(C)(C)C)n1` [Compound 1549], the Emax is greater than 60%.
